# Experiments:
# [1] = system: pectic acid lyases from Example 3 and Example 8; type: biochemical, Bacillus sp. KSM-P15; conditions: pH 7.5
# [2] = system: wild-type and reconbinant enzyme; experiment: Effect of the arginine-modifier 2,3-butanedione on residual activity; type: biochemical, Bacillus sp. KSM-P15; conditions: 0.1 M borate buffer pH 9.5, 30°C, 30 minutes; both enzymes
# [3] = system: recombinant pectic acid lyase of Bacillus sp. KSM-P15 (rPAL, Example 8), Sequence No. 1; experiment: Effect of H2O2 on residual pectic acid lyase activity; type: biochemical; conditions: in the presence of 3% H2O2; 50 mM Tris-HCl buffer (pH 7.5), 30°C, 30 minutes
# Procedure: (§1) 0.5 M glycine-NaOH buffer (pH 10.5) (0.3 ml), 6 mM calcium chloride (0.3 ml), and deionized water (1.7 ml) were placed in a test tube, which was then incubated at 30°C for 5 minutes. An appropriately diluted enzyme solution [0.1 ml, diluted with 50 mM Tris-HCl buffer containing 1 mM calcium chloride (pH 7.5)] was added to the test tube, which was further incubated at constant temperature for 5 minutes. An aqueous solution of polygalacturonic acid (0.6 ml, 1% (w/v), product of ICN Biomedicals Co., Lot 14482, pH 6.8 adjusted with sodium hydroxide solution) was added to the enzyme solution to initiate reaction, and the mixture was incubated at 30°C for 10 minutes. The reaction was terminated by the addition of 3 ml of 50 mM HCl. The quantity of unsaturated Oligogalacturonic acid formed in the reaction was determined through measuring the absorbance at 235 nm and calculating with the molar extinction coefficient of unsaturated digalacturonide (4600 M^-1 cm^-1, Hasegawa & Nagel, J. Food Sci., 31, 838-845, 1966). A test blank was prepared as follows: 50 mM hydrochloric acid (3 ml) was added to a reaction mixture treated without being incorporated with the enzyme solution, and subsequently an enzyme solution (0.1 ml) was added thereto. […]
# [4] = system: pectic acid lyase from Bacillus sp. KSM-P15, wild type (BPAL, Example 3), Sequence No. 1; experiment: as above; type: biochemical; conditions: in the presence of 3% H2O2; 50 mM Tris-HCl buffer (pH 7.5), 30°C, 30 minutes
# Procedure: as §1
Molecule,inhibition (in words) [1],also measured
O[C@H](CS)[C@H](O)CS (racemic) [dithiothreitol],slightly inhibited or did not completely inhibit the enzymes,–
"CC(=O)C(C)=O [2,3-butanedione]",–,inhibition (residual activity) [2]: ≥ 40%
"O=C(O)c1cc(SSc2ccc([N+](=O)[O-])c(C(=O)O)c2)ccc1[N+](=O)[O-] [5,5'-dithiobis(2-nitrobenzoic acid)]",slightly inhibited or did not completely inhibit the enzymes,–
O=C1CCC(=O)N1Br [N-bromosuccinimide],–,percentage inhibition [1]: 30-40%
CCN1C(=O)C=CC1=O [N-ethylmaleimide],slightly inhibited or did not completely inhibit the enzymes,–
CCOC(=O)OC(=O)OCC [diethyl pyrocarbonate],slightly inhibited or did not completely inhibit the enzymes,–
O=CC=O [glyoxal],slightly inhibited or did not completely inhibit the enzymes,–
O=C(O)CI [iodoacetic acid],slightly inhibited or did not completely inhibit the enzymes,–
O=C(O)c1cc[c]([Hg][Cl])cc1 [p-Chloromercuribenzoic acid],slightly inhibited or did not completely inhibit the enzymes,–
H2O2,–,"inactivation (residual activity, in words) [3]: not be inactivated; inactivation (residual activity, in words) [4]: not be inactivated"

# — patent EP1500700B1, “Use of a pectic acid lyase in a detergent” (KAO CORPORATION, priority 1997, dated 1998)
